# In patent US20110207694A1, “MAMMALIAN HYPOTHALAMIC NUTRIENT MODULATION OF GLUCOSE METABOLISM” (priority 2005, published 2011):
# Legend:
# Format in all cases: in vivo, rat
# conscious rats = assay: ICV glucose or lactate infusion with pancreatic basal insulin clamp: plasma glucose and liver glucose production
# From the text: We hypothesize that the hypothalamic sensing of glucose-derived pyruvate is a novel regulator of endogenous glucose production (GP). […] We propose that an increase in neuronal pyruvate levels is a hypothalamic signal of nutrient availability.
# Long chain fatty acids in the brain decrease glucose production (GP) by the liver via activation of hypothalamus ATP-sensitive (KATP) channels. Here we tested whether (A) direct administration of glucose in the third cerebral ventricle can alter glucose production by the liver, and (B) whether this effect requires its metabolism in the TCA cycle.
# rats = assay: Food intake after central (ICV) glucose or lactate; conditions: central administration
# hepatic VLDL secretion = assay: Lipoprotein (VLDL) secretion studies with tyloxapol; NMR particle size; conditions: ICV glucose
# Protocol: Lipoproteins secretion and particles concentration and size measurements. Tyloxapol (600 mg/kg; ˜1 min) was intravenously injected to inhibit endogenous lipoprotein lipase. This high dose of tyloxapol ensured complete inhibition of triglyceride clearance during VLDL secretion studies. Plasma samples were taken every 30 min for triglycerides analysis and for lipoprotein profiling. Plasma VLDL particles concentration and size were determined by nuclear magnetic resonance spectroscopy (lipoprofile-II test) at Liposcience as previously described (Otvos et al., 1991; 1992). This NMR lipoprofile-II test is based on the assumption that each plasma lipoprotein particle of a particular size gives its own characteristic lipid NMR signal. The intensity of the signal is also in proportion to the concentration of the particle. The diameter range for large, medium and small VLDL is >60 nm, 35-60 nm, and 27-35 nm, respectively.
# Selective hepatic branch vagotomy. The surgeries were performed as described (Lam et al., 2005c).
# (§1) Treatment with SCD1 ASO. Five and two days before the lipoprotein secretion studies, rats received a single intra-peritoneal injection of either SCD1 or scrambled (SCR) ASO (100 mg/kg of body weight). […] In a separate set of studies, rats received intra-portal injection of either SCD1 or SCR ASO (40 mg/kg of body weight) (Gutierrez-Juarez et al., 2006) three days before the lipoprotein secretion studies.
# Portal oleate infusion. Chronic portal catheter was implanted and 7 days were allowed for rat recovery. Oleic acid (45 mM; dissolved in 45% HBP) was infused at a rate of 40 μl/h for 2.5 h (1 h before the 90 min lipoprotein secretion studies). This dose enabled the reconstitution of hepatic oleyl-CoA levels back to normal during portal SCD1 ASO (FIG. 11c) or ICV glucose studies (FIG. 11d).
# [1] = tested on: Stearoyl-CoA Desaturase 1 (SCD1); assay: Liver SCD1 activity, SCD1 mRNA and LCFA-CoA measurements
# Protocol: as §1
# Liver LCFA-CoA measurements. The liver was sampled and the LCFA-CoAs were extracted from the liver and measured by high-performance liquid chromatography (HPLC) as previously described (Lam et al., 2005c).
# Stearoyl-CoA Desaturase 1 (SCD1) activity. CD1 activity assays were performed essentially as described (Cohen et al., 2002) using 1-[^14C]-stearoyl-CoA as a substrate. At the end of the reaction incubation long-chain acyl CoAs (LC Acyl-CoAs) were extracted and fractionated by reverse-phase HPLC as previously reported (Lam et al., 2005c). Chromatographically resolved stearoyl CoA (C18:0) and oleyl-CoA (C18:1) peaks were collected and counted in a β-scintillation counter. Protein was assayed by the bicinchoninic acid (BCA) method using a commercially available kit (Pierce Biotechnology, Rockford, Ill.) according to the manufacturer's instructions.
# Gene expression. Stearoyl-CoA Desaturasel (SCD1) mRNA was measured by quantitative real-time PCR. Briefly, total RNA was extracted from either liver or fat tissue using the Trizol reagent (Invitrogen, Carlsbad, Calif.) according to the manufacturer instructions. cDNA was then synthesized from 2 μg of total RNA using the Superscript® III First-Strand kit TM? (Invitrogen, Carlsbad, Calif.). Samples of RNA in which the reverse transcriptase was omitted (no RT controls) were also included. The cDNA and no RT controls were diluted 1:20 with PCR grade water and 2 μl from each sample was used for PCR in a total volume of 20 μl. The FastStart DNA Master SYBR Green I kit (Roche Applied Science, Indianapolis, Ind.) and a LightCycler® 2 instrument (Roche Applied Science, Indianapolis, Ind.) were used in all experiments. Either 18S mRNA expression was routinely measured for normalization purposes. The primer sequences used were as follows: 5′-[…]-3′ and 5′-[…]-3′ for Scd1; and 5′-[…]-3′ and 5′-[…]-3′ for ribosomal 18S. The mRNA copy number was calculated from standard curves obtained using cloned target templates (plasmid DNA) of known copy number for each gene of interest.
# high fat-fed rats = assay: ICV glucose or lactate in high fat-fed rats: plasma triglycerides and VLDL secretion
# Protocol: High fat feeding. Male Sprague-Dawley rats were fed a highly palatable high fat diet for three days. These rats developed hyperinsulinemia and hepatic insulin resistance (Morgan et al., 2004). […] In a separate set of studies, lipoprotein secretion studies were performed at the beginning of the ICV infusions.
smiles,measurement,setting,value
"O=C[C@H](O)[C@@H](O)[C@H](O)[C@H](O)CO [glucose, D-glucose]",circulating glucose levels,conscious rats; central (ICV) administration,lowered circulating glucose levels
same,gluconeogenesis and glycogenolysis,conscious rats; central administration,inhibited gluconeogenesis and glycogenolysis
same,"liver glucose production, G6Pase flux and mRNA",conscious rats; central administration,"reduced liver glucose production, G6Pase flux and mRNA"
same,plasma glucose concentrations,"conscious rats; four hour ICV infusion 5 μl/h (glucose 2 mM, lactate 5 mM), control 150±4",133 ± 5 mg/dL
same,exogenous glucose infusion rate required to maintain euglycemia,"conscious rats; pancreatic basal insulin clamps, central administration",increased exogenous glucose infusion rate
same,GP (glucose production),"conscious rats; pancreatic clamps, plasma glucose and insulin at basal, ICV infusion, control 10.4±0.1 (glucose), 11.7±0.6 (lactate)",7.4 ± 0.3 mg/kg/min
same,food intake overnight,rats,inhibits food intake overnight
same,hepatic content of triglycerides,hepatic VLDL secretion,increased
same,rate of secretion of small (27-35 nm) and medium (35-60 nm) VLDL particles,hepatic VLDL secretion,tended to be higher
same,secretion of large triglyceride-rich VLDL particles (diameter >60 nm),hepatic VLDL secretion,dramatically and selectively blunted the secretion of large triglyceride-rich VLDL particles
same,average size of the secreted VLDL particles,hepatic VLDL secretion; NMR spectroscopy,significant decrease in the average size of the secreted VLDL particles
same,rate of secretion of VLDL-triglycerides,hepatic VLDL secretion; tyloxapol 600 mg/kg,suppressed the rate of secretion of VLDL-triglycerides within 90 minutes
same,inhibitory effect on VLDL secretion in rats with resection of the hepatic branch of the vagus,hepatic VLDL secretion; preserved in sham-operated rats,abolished
same,decrease in hepatic expression and activity of SCD1,[1]; ICV glucose,~70%
same,hepatic desaturation index (oleyl-CoA over stearoyl-CoA),[1]; ICV glucose,reduction in the hepatic desaturation index
same,hepatic oleyl-CoA levels,[1]; ICV glucose,decreased the levels of oleyl-CoA
same,hepatic stearoyl-CoA levels,[1]; ICV glucose,increasing those of stearoyl-CoA
same,"hepatic oleyl-CoA levels, desaturation index and SCD1 activity",[1]; after 1 h (60 min) of ICV glucose infusion,"Significant decreases in hepatic oleyl-CoA levels, desaturation index, and SCD1 activity"
same,rate of appearance of VLDL-triglycerides in plasma,"high fat-fed rats; HF rats, tyloxapol",failed to decrease the rate of appearance of VLDL-triglycerides in plasma
same,circulating levels of triglycerides,high fat-fed rats; high fat-fed rats,failed to decrease the circulating levels of triglycerides
